The values below come from US20260042755A1, “GPR6 INVERSE AGONISTS” (MapLight Therapeutics, Inc., priority 2022, published 2026).

One assay addresses T1, GPR6 (Homo sapiens, UniProt P46095).
T1 construct: expressed in transfected cells; host or cells: CHO cells
The assay is described as follows: GPR6 antagonist functional cAMP assay (LANCE Ultra cAMP TR-FRET, CHO cells stably expressing GPR6). The class given is cell-based. The following applies: procedure of Example 24. The procedure, abridged: (§1)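 cAMP quantified by TR-FRET immunoassay after 45 min compound treatment at 37° C of CHO cells stably expressing GPR3 or GPR6, in PDE-inhibitor (Ro 20-1724, 150 μM) buffer with 0.1% BSA. Data scaled between DMSO (0%) and reference compounds (100%); antagonist IC50 by 4-parameter logistic fit.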

The next assay addresses T2, GPR3 (Homo sapiens, UniProt P46089).
T2 construct: expressed in transfected cells; host or cells: CHO cells
Description: GPR3 antagonist functional cAMP assay (LANCE Ultra cAMP TR-FRET, CHO cells stably expressing GPR3). The settings on record: procedure of Example 24. The assay is classed as cell-based. The procedure, abridged:
as §1
Background: Cyclic AMP is a second messenger, typically raised through Gs and lowered through Gi signalling.

SMILES strings stand for the structures.

T1 sequence (P46095 whole entry): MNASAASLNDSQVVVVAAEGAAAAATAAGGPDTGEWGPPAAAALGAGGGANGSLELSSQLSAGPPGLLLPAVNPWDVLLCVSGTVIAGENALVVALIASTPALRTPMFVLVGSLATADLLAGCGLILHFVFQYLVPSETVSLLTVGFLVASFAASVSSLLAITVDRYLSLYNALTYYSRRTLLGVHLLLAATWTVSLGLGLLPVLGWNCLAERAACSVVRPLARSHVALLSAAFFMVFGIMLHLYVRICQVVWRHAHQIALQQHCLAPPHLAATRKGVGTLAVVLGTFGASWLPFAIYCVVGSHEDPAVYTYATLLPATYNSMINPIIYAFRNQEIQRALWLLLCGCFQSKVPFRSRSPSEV
T2 sequence (P46089 whole entry, species assumed): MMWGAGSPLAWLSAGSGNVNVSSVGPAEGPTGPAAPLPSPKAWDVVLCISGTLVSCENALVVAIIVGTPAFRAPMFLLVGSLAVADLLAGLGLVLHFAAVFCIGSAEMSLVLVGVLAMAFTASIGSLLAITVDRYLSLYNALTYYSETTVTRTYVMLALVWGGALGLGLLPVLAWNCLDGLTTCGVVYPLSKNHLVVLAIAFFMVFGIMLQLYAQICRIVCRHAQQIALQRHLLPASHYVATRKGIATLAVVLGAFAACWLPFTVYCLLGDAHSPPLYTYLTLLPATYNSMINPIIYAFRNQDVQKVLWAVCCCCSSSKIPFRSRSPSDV

`CC(C)(O)C(=O)c1cc2nc(N3CCN(Cc4ccc(F)cc4F)CC3)c(-c3cnn(C4CC4)c3)nc2cn1` [Compound 619, 1-[3-(1-cyclopropyl-4-pyrazolyl)-2-{4-[(2,4-difluorophenyl)methyl]-1-piperazinyl}-1,4,6-triaza-7-naphthyl]-2-hydroxy-2-methyl-1-propanone]: the IC50 on GPR6 is 100 to 1000 nM; against GPR3, 1000 to 30000 nM.

Turning to `CC(C)(O)C(=O)c1cc2nc(-c3cnn(C(F)F)c3)c(N3CCN(Cc4ccc(F)cc4F)CC3)nc2cn1` [Compound 620, 1-{2-[1-(difluoromethyl)-4-pyrazolyl]-3-{4-[(2,4-difluorophenyl)methyl]-1-piperazinyl}-1,4,6-triaza-7-naphthyl}-2-hydroxy-2-methyl-1-propanone], the half-inhibitory concentration (IC50) against GPR6 and against GPR3 was 100 to 1000 nM each time.

As to `CC(C)(O)C(=O)c1cc2nc(N3CCC(Oc4ccc(F)cc4F)CC3)c(-c3cnn(CF)c3)nc2cn1` [Compound 621, 1-{2-[4-(2,4-difluorophenoxy)-1-piperidyl]-3-[1-(fluoromethyl)-4-pyrazolyl]-1,4,6-triaza-7-naphthyl}-2-hydroxy-2-methyl-1-propanone], the figures for the half-maximal inhibitory concentration (IC50) on GPR6 and against GPR3 were 100 to 1000 nM and 1000 to 30000 nM, respectively.

For the molecule `CC(C)(O)C(C)(O)c1cc2nc(N3CCN(Cc4ccccc4F)CC3)c(-c3cnn(CF)c3)nc2cn1` (centres unmarked) [Compound 622, 2-{3-[1-(fluoromethyl)-4-pyrazolyl]-2-{4-[(o-fluorophenyl)methyl]-1-piperazinyl}-1,4,6-triaza-7-naphthyl}-3-methyl-2,3-butanediol], the half-inhibitory concentration (IC50) at GPR6 lay in the range of 100 to 1000 nM; against GPR3, 1000 to 30000 nM.

For the molecule `CC(=O)N1CCc2nc(N3CCC(=Cc4ccccc4F)CC3)c(-c3cnn(C)c3)nc2C1` [Compound 623, 1-(2-{4-[(o-fluorophenyl)methylene]-1-piperidyl}-3-(1-methyl-4-pyrazolyl)-5,6,7,8-tetrahydro-1,4,6-triaza-6-naphthyl)-1-ethanone], the concentration for half-maximal inhibition (IC50) against GPR6 and at GPR3 was 100 to 1000 nM throughout.

For `CCn1cc(-c2nc3cnc(C(=O)C(C)(C)O)cc3nc2N2CCN(Cc3ccc(F)cc3F)CC2)cn1` [Compound 624, 1-(2-{4-[(2,4-difluorophenyl)methyl]-1-piperazinyl}-3-(1-ethyl-4-pyrazolyl)-1,4,6-triaza-7-naphthyl)-2-hydroxy-2-methyl-1-propanone], the results for the IC50 against GPR6 and on GPR3 were 100 to 1000 nM and 1000 to 30000 nM, respectively.

`CC(C)(O)C(=O)c1cc2nc(N3CCC(Oc4ccc(F)cc4F)CC3)c(-c3cnn(C4CC4)c3)nc2cn1` [Compound 625, 1-{3-(1-cyclopropyl-4-pyrazolyl)-2-[4-(2,4-difluorophenoxy)-1-piperidyl]-1,4,6-triaza-7-naphthyl}-2-hydroxy-2-methyl-1-propanone]: the half-maximal inhibitory concentration (IC50) on GPR6 was in the range of 100 to 1000 nM; at GPR3, 1000 to 30000 nM.

As for `C=CC(=O)N1CCc2nc(N3CCC(Oc4ccc(F)cc4F)CC3)c(-c3ccc(F)c(N)n3)nc2C1` [Compound 626, 1-{3-(6-amino-5-fluoro-2-pyridyl)-2-[4-(2,4-difluorophenoxy)-1-piperidyl]-5,6,7,8-tetrahydro-1,4,6-triaza-6-naphthyl}-2-propen-1-one], the values for the IC50 against GPR6 and against GPR3 were below 100 nM and 1000 to 30000 nM, respectively.

With `CC(C)S(=O)(=O)N1CCc2nc(N3CCC(Oc4ccc(F)cc4F)CC3)c(-c3ccc(F)c(N)n3)nc2C1` [Compound 627, 6-{2-[4-(2,4-difluorophenoxy)-1-piperidyl]-6-(isopropylsulfonyl)-5,6,7,8-tetrahydro-1,4,6-triaza-3-naphthyl}-3-fluoro-2-pyridylamine], the IC50 at GPR6 lay in the range of 100 to 1000 nM; against GPR3, 1000 to 30000 nM.

With `COCC(=O)N1CCc2nc(N3CCC(Oc4ccc(F)cc4F)CC3)c(-c3ccc(F)c(N)n3)nc2C1` [Compound 628, 1-{3-(6-amino-5-fluoro-2-pyridyl)-2-[4-(2,4-difluorophenoxy)-1-piperidyl]-5,6,7,8-tetrahydro-1,4,6-triaza-6-naphthyl}-2-methoxy-1-ethanone], the IC50 at GPR6 was in the range of 100 to 1000 nM; on GPR3, 1000 to 30000 nM.

In general, IC50 refers to the concentration that gives 50% inhibition.
